Experimental data from PMC5620575 (Pharmaceutics, 2017).
Values after ≈ are worked out from the molar mass of the structure shown. Where two headings read alike, the source gives them in different places.

Legend:
Moraxella catarrhalis = system: Moraxella catarrhalis; set-up: method as in PMID 12467705, PMID 15911326, PMID 17140706, PMID 19376613, PMID 23811087; conditions: cited from earlier work
[1] = blood to plasma partition; type: in vitro ADME; conditions: heparinized whole blood, rabbit blood, 37 °C, n = 3
Description: The spiked blood samples were kept at 37 °C in a shaking water bath for one hour, and plasma was then obtained by centrifugation at 37 °C. Aliquots of about 400 μL, of each plasma sample were kept frozen at −80 °C until analysis. The blood to plasma distribution ratio was determined from the ratio of the nominal total whole blood concentration and the measured plasma concentration for each compound.

[2] = pharmacokinetics after single oral administration as suspension; type: in vivo; conditions: New Zealand White, plasma, rabbit, 20 mg/kg, n = 4
Description: The pediatric feeding tube was pushed until it reached the stomach.
Three groups of rabbits (n = 4, each) received 20 mg/kg oral dose of each compound. […] Accurately weighted amounts of each compound were dissolved/suspended in 20 mL of warm normal saline using an ultrasound water bath. […] The solutions/suspensions of the three compounds were administered orally to the rabbits using a pediatric feeding tubes. After oral administration of each compound, serial blood samples were obtained through the IV catheter, over a period of 10 h after administration. Plasma was obtained from blood by centrifugation, and samples were kept at −80 °C until analysis.
(§1) The pharmacokinetic parameters for each of the three compounds including half-life (t1/2), volume of distribution (Vd), elimination rate constant (k), area under the plasma concentration-time curve (AUC), total body clearance (CLT), renal clearance (CLR), and oral bioavailability (F) were determined using the general pharmacokinetic parameter calculation procedures using PKPD tools for Microsoft Excel. The obtained pharmacokinetic parameters for each compound were compared using Statistical Package of Social Sciences (SPSS) to determine the difference in the pharmacokinetic behavior for the three compounds.

[3] = pharmacokinetics after single oral administration as microemulsion; type: in vivo; conditions: plasma, rabbit, 20 mg/kg, n = 3; for AUC / Cmax / Tmax: New Zealand White; for bioavailability: White New Zealand
Description: Three groups of rabbits (n = 3, each) received 20 mg/kg oral dose of each compound in the form of microemulsion through a pediatric feeding tube. After administration, serial blood samples were obtained through the IV catheter, over a period of 10 h. Plasma was obtained from blood by centrifugation, and samples were kept at −80 °C until analysis.
as §1

[4] = plasma protein binding (ultrafiltration); type: in vitro ADME; conditions: for fraction unbound at 1 h, 250 μg/L / fraction unbound at 1 h, 1000 μg/L / fraction unbound at 1 h: rabbit, plasma; for fraction unbound at 1 h, 250 μg/L / fraction unbound at 1 h, 1000 μg/L: n = 3, read-out: Plasma protein binding (% bound) (converted)
Description: The remaining volume of the plasma samples obtained by centrifugation in the blood to plasma partition experiment, about 600 μL, was immediately placed in disposable ultrafiltration devices (Centrifree®, EMD Millipore Corp., Billerica, MA, USA), and centrifuged in a temperature controlled centrifuge at 37 °C. The ultrafiltrate collected in the ultrafiltration device cup was stored at −20 °C until analysis. The plasma protein binding for the three compounds in rabbit plasma was determined in triplicates at two different concentrations. The total (free + bound) plasma concentration is the concentration in the plasma samples obtained by centrifugation in the blood to plasma partition experiment, while the free (unbound) concentration is the concentration in the ultrafiltrate. The percentage bound was calculated from the free concentration and the corresponding total concentration according to Equation (1). (1) % Bound = Total concentration−Free concentration/Total concentration × 100

[5] = biopharmaceutical classification system (BCS) class; conditions: assigned from lower aqueous solubility than Lzd and calculated Log P less than 1.7
[6] = set-up: method as in unpublished data from our laboratory; conditions: rabbit urine after IV administration; ref unpublished data from our laboratory; cited from earlier work
Streptococcus pneumoniae = system: Streptococcus pneumoniae; set-up: method as in PMID 12467705, PMID 15911326, PMID 17140706, PMID 19376613, PMID 23811087; conditions: cited from earlier work
[7] = tissue to plasma distribution; type: in vivo; conditions: New Zealand White, rabbit, 2 x 10 mg/kg IV, 2 h after second dose, n = 3
Description: Three groups of White New Zealand rabbits (n = 3, each) weighing 3.0–3.5 kg were used. Each group received 10 mg/kg of one compounds administered intravenously over a period of 3–5 min, followed one hour later by a second IV dose of 10 mg/kg. Two h later, the rabbits were euthanized with an IV dose of pentobarbital. Plasma and tissue samples, including kidney, liver, lungs, spleen, heart, muscles, and vetrus fluid were collected immediately, and stored at −80 °C until analysis.
Plasma ultra-filtrate samples were analyzed using the same procedures for the plasma. Tissue homogenates were prepared by adding 1 gm of the tissues samples to 4 g of phosphate buffer, pH 7.4 (1:4, w/w), then homogenization using Tissue-Tearor, Bio-Spec Products Inc. (Bartlesville, OK, USA). Aliquots of 200 μL of tissue homogenate samples were analyzed using the procedures for the plasma and the concentrations were determined using plasma calibrators as described and validated previously for Lzd and PH027 [18].
The tissue to plasma concentration ratios for the three compounds were calculated from the ratio of the tissue homogenate concentrations corrected for the dilution during the homoginization process and the plasma concentrations. Generally, the three compounds have very good distribution to all tissues. The tissue to plasma distribution ratios for the novel compounds were more than one in kidney, lung, liver, heart, muscles and spleen, and the ratios were more than those for Lzd in all investigated tissues. Table 3, summerizes the tissue to plasma distribution ratios for the three compounds in different tissues.

[8] = system: Staphylococcus aureus and Enterococci spp; set-up: method as in PMID 12467705, PMID 15911326, PMID 17140706, PMID 19376613, PMID 23811087; conditions: clinical isolates; cited from earlier work
[9] = brain, read-out: Tissue to Plasma Concentration Ratio, Brain
[10] = eye (vitreous fluid), read-out: Tissue to Plasma Concentration Ratio, Eye (vetrus fluid)
[11] = heart, read-out: Tissue to Plasma Concentration Ratio, Heart
[12] = kidney, read-out: Tissue to Plasma Concentration Ratio, Kidney
[13] = liver, read-out: Tissue to Plasma Concentration Ratio, Liver
[14] = lung, read-out: Tissue to Plasma Concentration Ratio, Lung
[15] = muscle, read-out: Tissue to Plasma Concentration Ratio, Muscles
[16] = spleen, read-out: Tissue to Plasma Concentration Ratio, Spleen

Row | SMILES | MIC (Moraxella catarrhalis) | blood plasma ratio at 1 h, 250 μg/L [1] | blood plasma ratio at 1 h, 1000 μg/L [1] | AUC [2] | Cmax [2] | Tmax [2] | bioavailability [2] | AUC [3] | Cmax [3] | Tmax [3] | bioavailability [3] | fraction unbound at 1 h, 250 μg/L [4] | fraction unbound at 1 h, 1000 μg/L [4] | fraction unbound at 1 h ([4]; over both concentrations) | BCS class [5] | main metabolic route [6] | MIC (Streptococcus pneumoniae) | Kp at 2 h [7, 9] | Kp at 2 h [7, 10] | Kp at 2 h [7, 11] | further results
1 | O=C1O[C@@H](Cn2ccnn2)CN1c1ccc(N2CCOCC2)c(F)c1 [PH027] | > 16.0 µg/mL | 0.96 ± 0.032 | 1.01 ± 0.021 | 5010 ± 2430 ng·h/mL | 1620 ± 820 ng/mL | 1 h | 22.1% | 16600 ng·h/mL | 2870 ± 392 ng/mL | 2 h | 72.9% | 0.613 | 0.622 | 0.62 to 0.63 | Class IV | metabolized mainly through oxidation | 0.5 µg/mL (≈ 1.44 µM) | 0.223 ± 0.016 | 0.989 ± 0.1 | 1.36 ± 0.087 | Kp at 2 h [7, 12]: 2.78 ± 0.089; Kp at 2 h [7, 13]: 2.91 ± 0.168; Kp at 2 h [7, 14]: 1.59 ± 0.041; Kp at 2 h [7, 15]: 1.25 ± 0.059; Kp at 2 h [7, 16]: 1.51 ± 0.026; MIC [8]: 0.5 to 1.0 µg/mL
2 | O=C1O[C@@H](Cn2ccnn2)CN1c1ccc(N2CCN(C(=O)C(F)(F)F)CC2)c(F)c1 [PH051] | 8.0 µg/mL (≈ 18.1 µM) | 0.772 ± 0.022 | 0.833 ± 0.015 | 369 ± 378 ng·h/mL | 69.7 ± 14.8 ng/mL | 1 h | 4.73% | 1080 ± 426 ng·h/mL | 731 ± 412 ng/mL | 0.5 h | 13.9% | 0.089 | 0.091 ± 0.0019 | 0.09 to 0.1 | Class IV | amide hydrolysis | 1.0 µg/mL (≈ 2.26 µM) | 0.179 ± 0.07 | 0.81 ± 0.11 | 1.56 ± 0.22 | plasma protein binding ([4]; rabbit plasma, over both concentrations): 91%; Kp at 2 h [7, 12]: 2.22 ± 0.063; Kp at 2 h [7, 13]: 1.7 ± 0.19; Kp at 2 h [7, 14]: 1.5 ± 0.16; Kp at 2 h [7, 15]: 1.58 ± 0.21; Kp at 2 h [7, 16]: 1.41 ± 0.27; MIC [8]: 0.25 to 0.5 µg/mL
